Patent US5856303A, “Peptide, a bronchus-expanding agent, and a blood-flow-improving agent” (Itoham Foods, Inc., priority 1995, dated 1999)
Ends that are not written are not given here.

How the values were obtained:
[1] = tested on: bronchial smooth muscle; experiment: Bronchus-expanding action: relaxation of carbachol-contracted guinea pig tracheal chain in organ bath; type: cell-based, guinea pigs; conditions: 0.1 μmol/l carbachol-contracted trachea
Excerpt: Purified peptides 1 to 15 obtained in Examples 1 to 15 were examined for their bronchus-expanding action in the following manner and compared with that of VIP and PACAP.
Male guinea pigs each weighing 450 to 500 g were cut at the jugular veins to open the chests, and immediately the tracheae were immediately removed. Their tracheae were immediately placed in a Krebs solution and cut into loops and then formed into a chain by linking the cartilage parts with one another via a steel string. Then, the cartilage parts in the opposite side to the smooth muscular parts were cut such that the smooth muscular parts were attached to one another. The resulting sample was placed in an about 10-ml isothermic organ bath and perpendicularly suspended. The lower part was fixed and the upper part was connected to a grass force transducer with a load of 1.4 g. A gas of 94% oxygen and 6% carbon dioxide was sufficiently blown into this sample while a Krebs solution containing 0.1μ mol/l carbachol was dropped to it at a rate of 0.33 ml/min. to determine relaxation action. Because the relaxation reaction occurs depending on the content of a test sample in this drop solution, this can be used to compare the relaxation action of VIP and PACAP and that of the peptides of the invention on the bronchial smooth muscle.
A solution of each of […], PACAP and the peptides of the invention was prepared in a concentration as high as 100-fold than the final concentration so that its concentration in the organ bath could be adjusted. 30 minutes after the carbachol-containing Krebs solution was dropped, 100 μl of the sample solution was dropped.
It was assumed that the degree of contraction of the smooth muscle is 0 in the absence of carbachol and the degree is 100 in the presence of carbachol. Minimum contraction degree A (i.e. maximum relaxation value) in the presence of the sample was determined, and maximum relaxation degree B was calculated as follows:
Maximum relaxation degree B (%)=100-A
The time required to reach half of the maximum relaxation value (referred to hereinafter as "half-time T") after the addition of the sample was determined.
A change in the relaxation degree of the bronchial smooth muscle with time was determined using each peptide at 3 dosages of 0.3 μM, 1 μM, and 3 μM respectively. The results are shown in the drawings: PACAP in FIG. 1; peptide 5 obtained in Example 5, in FIG. 2; VIP in FIG. 3; and peptide 11 obtained in Example 11, in FIG. 4. The maximum relaxation degree B at a dosage of 3 μM is 75% for peptide 5 and 80% for peptide 11, and half-time T is 360 minutes or more in both the cases.

[2] = tested on: Wistar male rats; experiment: Blood-flow increasing action in anesthetized rats (femoral artery blood flow, carotid blood pressure); type: in vivo; conditions: 100 pmol/kg intraarterially, right femoral artery
Procedure: Purified peptides 1 to 15 obtained in Examples 1 to 15 were examined for their blood-flow increasing action and compared with those of VIP and PACAP. Wistar male rats each weighing 220 to 250 g were anesthetized by intraperitoneal administration of pentobarbital (25 mg/kg) and fixed on their back. An arterial canula was inserted into the carotid and then connected to a blood-pressure transducer (DX-300, Nippon Koden, Japan) via a doom kit (SCK-512, Nippon Koden) filled with heparin-containing physiological saline (10 U/ml) to measure blood pressure with a strain blood-pressure amplifier (AP-601G, Nippon Koden). Further, a blood-flow measurement probe (FR-030T, Nippon Koden) was attached to the right femoral artery and then connected to an electromagnetic blood-flow meter (MFV-3200, Nippon Koden) to measure blood flow. The dosage of each peptide intraarterially administrated was 100 pmol/kg.

Row | Substance | Half-time T (time required to reach half of the maximum relaxation value) ([1]; 0.3 μM) | Maximum relaxation degree B ([1]; 0.3 μM) | Half-time T (time required to reach half of the maximum relaxation value) ([1]; 1 μM) | Maximum relaxation degree B ([1]; 1 μM) | Half-time T (time required to reach half of the maximum relaxation value) ([1]; 3 μM) | Maximum relaxation degree B ([1]; 3 μM) | Blood Flow (increase in blood flow) [2]
1 | pituitary adenylate cyclase activating polypeptide (HSDGIFTDSYSRYRKQMAVKKYLAAVLGKRYKQRVKNK; ends and bridges not checked; UniProt P16613 132-169, looked up) [PACAP, structurally determined peptide consisting of 38 amino acid residues, isolated from sheep hypothalamus] | 60 min | 40% | 60 min | 90% | 100 min | 90% | 16.04 ± 5.92 mL/min
2 | vasoactive intestinal peptide [VIP] | 130 min | 45% | 150 min | 80% | 240 min | 85% | 10.18 ± 3.38 mL/min
